Measurements taken from patent US7977354B2, “Heterocyclic compounds, their preparation and their use as medicaments, in particular as anti-alzheimer agents” (priority 2005, dated 2011).
Like-named read-outs stand apart in the source and are kept apart here.

Columns and labels:
[1] = target: T1, human acetylcholinesterase (Homo sapiens, UniProt P22303); assay: biochemical; assay type: biochemical; details: for Inhibition of human acetylcholinesterase (apparent IC50), result in words: tested until solubility limit
T1 construct: human erythrocyte membranes as a AChE source; from tissue; host or cells: human erythrocyte membranes
T1 sequence (P22303 32-617 isoform P22303-2 limits assumed): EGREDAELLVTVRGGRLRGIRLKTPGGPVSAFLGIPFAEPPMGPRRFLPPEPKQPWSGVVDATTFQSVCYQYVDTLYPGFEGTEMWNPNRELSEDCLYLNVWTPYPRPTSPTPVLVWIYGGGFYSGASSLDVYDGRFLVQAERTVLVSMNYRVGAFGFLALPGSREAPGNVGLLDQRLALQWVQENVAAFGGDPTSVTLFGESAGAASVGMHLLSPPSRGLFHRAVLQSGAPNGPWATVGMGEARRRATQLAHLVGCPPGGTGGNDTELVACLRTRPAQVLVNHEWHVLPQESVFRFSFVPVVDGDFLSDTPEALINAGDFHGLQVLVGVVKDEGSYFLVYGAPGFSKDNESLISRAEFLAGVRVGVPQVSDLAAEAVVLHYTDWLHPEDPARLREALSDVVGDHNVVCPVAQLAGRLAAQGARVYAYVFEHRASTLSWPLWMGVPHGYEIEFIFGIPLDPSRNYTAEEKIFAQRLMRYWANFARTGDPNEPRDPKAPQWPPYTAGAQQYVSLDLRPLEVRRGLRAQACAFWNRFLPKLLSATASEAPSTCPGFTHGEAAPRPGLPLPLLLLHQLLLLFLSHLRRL

[2] = system: muscarinic receptors; assay: Muscarinic receptors binding, radioligand [3H]-N-methylscopolamine, rat striatal membranes; details: at 10^−5 M
Description: The ability of prodrugs of formula G and/or inhibitors of formula G+ to nonselectively bind muscarinic receptors was evaluated with conventional radioligand binding method.
The ability of bio precursors and/or inhibitors to nonselectively bind muscarinic receptors was evaluated with conventional radioligand binding method.
The assay mixture (PBS Buffer, 300 μL), rat striatal membranes as a muscarinic receptors source (1 g/L, 100 μL), unknown compound at various concentrations (50 μL) and ^3H—N-methylscopolamine as specific radioligand of muscarinic receptors. The 60.0 minutes incubation time at room temperature was selected after preliminary experiments performed to ensure that the equilibrium between studied ligand and radioligand on muscarinic receptors is reached. The reaction was stopped by rapid vacuum filtration through Whatman GF/C filter paper (pre-soaked in a solution of polyethylenimine (0.1%) to reduce binding to filters). Filters were subsequently washed with ice-cold buffer (PBS Buffer, 3×1.5 mL) and placed overnight in 3 mL of Ready-Safe scintillation cocktail (Beckman Coulter, Inc.). Radioactivity was measured using a Wallac liquid scintillation counter. Each experiment was carried out twice in duplicate.

[3] = system: Swiss albinos mice; assay: Acute toxicity in mice; assay type: in vivo; details: female and male Swiss albinos mice, intraperitoneal injection; compound 67 tested under its inclusion form as compound 82
Description: The Acute toxicity studies were carried out using female and male Swiss albinos mice (25-35 g). Most of the compounds show a very low toxicity, namely with a DL50 higher than 10 mg/kg. […] The pharmacokinetic study was carried out using female and male Swiss albinos mice for the determination of half-life and distribution volume of a compound of the invention
The toxicity studies were carried out using female and male Swiss albinos mice (25-35 g). Animals were kept in a temperature-controlled environment (23±2° C.) with a 12 h light-dark cycle and food and water were freely available. The animals were divided into one control group and five treated groups, each group consisting of six animals. The control group received saline and each treated group received the studied ligand in a dose of 1, 3, 10, 30 and 100 mg/kg by intraperitoneal injection. The animals were observed continuously for 3 h, and then they were observed each hour during 72 h after administering the compound in order to observe any changes in general behaviour or other physiological activities. At the end of the experiment, animals were sacrificed by cervical displacement.

[4] = Pharmacokinetic: half-life and distribution volume in mice, plasma HPLC; details: both, Swiss albino, mouse, in vivo, ip, 10 mg/kg
[5] = human erythrocyte membranes, acetylthiocholine iodide, pH 7.4, 10 min, room temperature, read-out: Inhibition of human acetylcholinesterase (apparent IC50)

CN(C)C(=S)Oc1cccc2c[n+](C)ccc12 [Example 75, 2-Methyl-5-(N,N-Dimethylthiocarbamate)-O-Isoquinolinium Triflate]
IC50 [1, 5]: > 10000 nM

CCNC(=O)Oc1cccc2c1CC(C(=O)OC)=CN2C [Example 76, Methyl 1-Methyl-5-(N-Ethylcarbamate)-1,4-Dihydroquinoline-3-Carboxylate]
Inhibition of human acetylcholinesterase (apparent IC50), result in words ([1]; human erythrocyte membranes): No inhibition until

CCNC(=O)Oc1cccc2c1cc(C(=O)OC)c[n+]2C [Compound 76B, Methyl 5-(N-ethylcarbamate)-1-methylquinolinium-3-carboxylate triflate]
IC50 [1, 5]: 6000 nM

CN(C)C(=O)Oc1ccc2cc[n+](C)cc2c1 [Example 72, 7-(N,N-Dimethylcarbamate)-2-Methylisoquinolinium Triflate]
IC50 [1, 5]: 5000 nM

COC(=O)C1=CN(C)c2cccc(OC(=O)N(C)C)c2C1 [Example 67, methyl 5-(N,N-dimethylcarbamate)-1-methyl-1,4-dihydroquinoline-3-carboxylate]
Inhibition of human acetylcholinesterase (apparent IC50), result in words ([1]; human erythrocyte membranes): No inhibition until | Displacement of [^3H] N-methylscopolamine from muscarinic receptors [2]: 0% at 10^−5 M | Acute toxicity (DL50) [3]: 25 mg/kg | C0 [4]: 806 nM | half-life ([4]; Plasmatic half-life time T1/2, mice, intraperitoneal injection of 10 mg/kg of compound 67 under its inclusion form (example 82)): 14 min

CCCNC(=O)C1=CN(C)c2cc(OC(=O)N(C)C)ccc2C1 [Example 78, 1-Methyl-3-(N-Propylcarboxamido)-7-(N,N-Dimethylcarbamate)-1,4-Dihydroquinoline]
Inhibition of human acetylcholinesterase (apparent IC50), result in words ([1]; human erythrocyte membranes): No inhibition until | Displacement of [^3H] N-methylscopolamine from muscarinic receptors [2]: 25% at 10^−5 M

CN(C)C(=O)Oc1cccc2c1cc(C(=O)N(C)C)c[n+]2C [Compound 69D, 5-(N,N-dimethylcarbamate)-3-(N,N-dimethylcarboxamido)-1-methylquinolinium triflate]
IC50 [1, 5]: 15 nM | Displacement of [^3H] N-methylscopolamine from muscarinic receptors [2]: 0% à 10^−5 M

CCOC(=O)c1cc2ccc(OC(=O)N(C)C)cc2[n+](C)c1 [Compound 1D, ethyl 1-methyl-7-(N,N-dimethylcarbamate)quinolinium-3-carboxylate triflate]
IC50 [1, 5]: 500 nM | Displacement of [^3H] N-methylscopolamine from muscarinic receptors [2]: 0% at 10^−5 M

CCOC(=O)c1cc2c(OC(=O)N(C)C)cccc2[n+](C)c1 [Compound 2E, Ethyl 5-(N,N-dimethylcarbamate)-1-methylquinolinium-3-carboxylate triflate]
IC50 [1, 5]: 7 nM | Displacement of [^3H] N-methylscopolamine from muscarinic receptors [2]: 0% at 10^−5 M

CNC(=O)C1=CN(C)c2cccc(OC(=O)N(C)C)c2C1 [Example 68, 5-(N,N-dimethylcarbamate)-1-methyl-3-(N-methylcarboxamido)-1,4-dihydroquinoline]
Inhibition of human acetylcholinesterase (apparent IC50), result in words ([1]; human erythrocyte membranes): No inhibition until | Displacement of [^3H] N-methylscopolamine from muscarinic receptors [2]: 0% at 10^−5 M

CNC(=O)c1cc2c(OC(=O)N(C)C)cccc2[n+](C)c1 [Compound 68D, 5-(N,N-dimethylcarbamate)-1-methyl-3-(N-methylcarboxamido)quinolinium triflate]
IC50 [1, 5]: 29 nM | Displacement of [^3H] N-methylscopolamine from muscarinic receptors [2]: 0% à 10^−5 M

CN(C)C(=O)Oc1cccc2c1CC(C(=O)N1CCOCC1)=CN2C [Example 70, morpholine 4-[5-(N,N-dimethylcarbamate)-1-methyl-1,4-dihydroquinolyl-3-carbonyl]]
Inhibition of human acetylcholinesterase (apparent IC50), result in words ([1]; human erythrocyte membranes): No inhibition until | Displacement of [^3H] N-methylscopolamine from muscarinic receptors [2]: 0% à 10^−5 M

CCOC(=O)C1=CN(C)c2cc(OC(=O)N(C)C)ccc2C1 [Example 1, ethyl 1-methyl-7-(N,N-dimethylcarbamate)-1,4-dihydroquinoline-3-carboxylate]
Inhibition of human acetylcholinesterase (apparent IC50), result in words ([1]; human erythrocyte membranes): No inhibition until | Displacement of [^3H] N-methylscopolamine from muscarinic receptors [2]: 0% at 10^−5 M

CCCNC(=O)c1cc2ccc(OC(=O)N(C)C)cc2[n+](C)c1 [Compound 78C, 7-(N,N-dimethylcarbamate)-3-(N-propylcarboxamido)-1-methylquinolinium triflate]
IC50 [1, 5]: 50000 nM | Displacement of [^3H] N-methylscopolamine from muscarinic receptors [2]: 20% at 10^−5 M

COC(=O)c1cc2c(OC(=O)N(C)C)cccc2[n+](C)c1 [Compound 67E, Methyl 5-(N,N-dimethylcarbamate)-1-methylquinolinium-3-carboxylate triflate]
IC50 [1]: 110 nM | Displacement of [^3H] N-methylscopolamine from muscarinic receptors [2]: 0% at 10^−5 M

CCOC(=O)c1cc2cccc(OC(=O)N(C)C)c2[n+](C)c1 [Example 77, Ethyl 1-Methyl-8-(N,N-Dimethylcarbamate)Quinolinium-3-Carboxylate Triflate]
IC50 [1, 5]: 8000 nM

COC(=O)c1cc2c(OC(=O)N(C)C)cc(OC(=O)N(C)C)cc2[n+](C)c1 [Example 73, Methyl 5,7-Bis(N,N-Dimethylcarbamate)-1-Methylquinolinium-3-Carboxylate Triflate]
IC50 [1, 5]: > 10000 nM

CN(C)C(=O)Oc1cccc2c1cc(C(=O)N1CCOCC1)c[n+]2C [Compound 70D, 5-(N,N-dimethylcarbamate)-1-methyl-3-(morpholinocarboxy)quinolinium triflate]
IC50 [1, 5]: 860 nM | Displacement of [^3H] N-methylscopolamine from muscarinic receptors [2]: 0% à 10^−5 M

CCOC(=O)c1ccc[n+](Cc2ccc(OC(=O)N(C)C)cc2)c1 [Example 80]
IC50 [1, 5]: 227 nM

CN(C)C(=O)Oc1cccc2c[n+](C)ccc12 [Example 71, 5-(N,N-dimethylcarbamate)-2-methylisoquinolinium triflate]
IC50 [1, 5]: 50 nM

CCOC(=O)C1=CN(C)c2cccc(OC(=O)N(C)C)c2C1 [Example 2, ethyl 1-methyl-5-(N,N-dimethylcarbamate)-1,4-dihydroquinoline-3-carboxylate]
Inhibition of human acetylcholinesterase (apparent IC50), result in words ([1]; human erythrocyte membranes): No inhibition until | Displacement of [^3H] N-methylscopolamine from muscarinic receptors [2]: 0% at 10^−5 M

COC(=O)c1cc2cccc(OC(=O)N(C)C)c2[n+](C)c1 [Example 74, Methyl 8-(N,N-Dimethylcarbamate)-1-Methylquinolinium-3-Carboxylate Triflate]
IC50 [1, 5]: 1400 nM
